Results reported in paper PMC8260761, “A bacteriocin-based treatment option for Staphylococcus haemolyticus biofilms” (Scientific Reports, 2021).

Tests used:
Experiment in all cases: Spot-on-lawn inhibition assay
Format in all cases: cell-based
S. aureus = tested on: S. aureus; set-up: key: –: “−” = No inhibition; “+” = Unclear zone; “++” = zone < 1 cm; “+++” = zone ≥ 1 cm; details: 5 µl at 1 mg/ml, n=3
Procedure: (§1) A semi-quantitative spot-on-lawn inhibitory assay was performed on 51 bacterial indicator strains (Table S1) to determine the bacteriocins inhibition spectra. Overnight cultures were diluted 1:100 in BHI soft agar and distributed on BHI agar plates. Once solidified, bacteriocins with various concentrations were applied on designated spots. The plates were incubated at appropriate temperature O/N and inhibition zones were measured the following day. To determine minimal inhibitory concentration (MIC50) of H1 against clinical S. haemolyticus isolates (Table S2), as well as strains heterologously expressing RseP (Table S4), the microtiterplate antimicrobial assay was performed as previously described[41],[79]. MIC50 was defined as the minimal bacteriocin concentration needs to inhibit the growth of a bacterial strain by at least 50%.

S. epidermidis = tested on: S. epidermidis; set-up: key: –: “−” = No inhibition; “+” = Unclear zone; “++” = zone < 1 cm; “+++” = zone ≥ 1 cm; details: S. epidermidis LMG 3522; 5 µl at 1 mg/ml; n=3
Procedure: as §1

Staphylococcus arlettae = tested on: Staphylococcus arlettae; set-up: key: –: “−” = No inhibition; “+” = Unclear zone; “++” = zone < 1 cm; “+++” = zone ≥ 1 cm; details: Staphylococcus arlettae LMG 4134; 5 µl at 1 mg/ml; n=3
Procedure: as §1

[1] = tested on: Staphylococcus haemolyticus strains; set-up: key to Mutants observed after 24 h (mark *): *Mutants observed after 24 h; key to Average inhibition score: –: “−” = No inhibition; “+” = Unclear zone; “++” = zone < 1 cm; “+++” = zone ≥ 1 cm; details: for Mutants observed after 24 h (mark *): spot of 5 μl at 1 mg/ml
Procedure: as §1

L. monocytogenes = L. monocytogenes EDGe; 5 µl at 1 mg/ml; n=3
Procedure: as §1

L. sakei = tested on: L. sakei; set-up: key: “-“ = No inhibition; “+” = Unclear zone; “++” = zone < 1 cm; “+++”= zone > 1 cm; details: 5 µl at 1 mg/ml, n=3
Procedure: as §1

Carnobacterium divergens = tested on: Carnobacterium divergens; set-up: key: “-“ = No inhibition; “+” = Unclear zone; “++” = zone < 1 cm; “+++”= zone > 1 cm; details: Carnobacterium divergens NCDO 2306; 5 µl at 1 mg/ml; n=3
Procedure: as §1

Bacillus cereus = tested on: Bacillus cereus; set-up: key: “-“ = No inhibition; “+” = Unclear zone; “++” = zone < 1 cm; “+++”= zone > 1 cm; details: 5 µl at 1 mg/ml, n=3
Procedure: as §1

C. piscicola = tested on: C. piscicola; set-up: key: “-“ = No inhibition; “+” = Unclear zone; “++” = zone < 1 cm; “+++”= zone > 1 cm; details: C. piscicola LMG 2332; 5 µl at 1 mg/ml; n=3
Procedure: as §1

## MLAKIKAMIKKFPNPYTLAAKLTTYEINWYKQQYGRYPWERPVA [EJ97, enterocin EJ97]
S. aureus; S. aureus LMG 3263
  Average inhibition score: +
S. aureus; S. aureus LMG 3326
  Average inhibition score: +
S. epidermidis
  Average inhibition score: +
Staphylococcus arlettae
  Average inhibition score: +
[1]; S. haemolyticus 4068, 5 μl at 1 mg/ml, n = 3
  Average inhibition score: ++ (“++” = zone < 1 cm)
[1]; S. haemolyticus 4068
  Mutants observed after 24 h (mark *): *
[1]; S. haemolyticus 4069, 5 μl at 1 mg/ml, n = 3
  Average inhibition score: ++ (“++” = zone < 1 cm)
[1]; S. haemolyticus 4069
  Mutants observed after 24 h (mark *): *
[1]; S. haemolyticus 4070, 5 μl at 1 mg/ml, n = 3
  Average inhibition score: ++ (“++” = zone < 1 cm)
[1]; S. haemolyticus 4070
  Mutants observed after 24 h (mark *): *
[1]; S. haemolyticus 4071, 5 μl at 1 mg/ml, n = 3
  Average inhibition score: ++ (“++” = zone < 1 cm)
[1]; S. haemolyticus 4071
  Mutants observed after 24 h (mark *): *
[1]; S. haemolyticus 4072, 5 μl at 1 mg/ml, n = 3
  Average inhibition score: ++ (“++” = zone < 1 cm)
[1]; S. haemolyticus 4072
  Mutants observed after 24 h (mark *): *
[1]; S. haemolyticus 4073, 5 μl at 1 mg/ml, n = 3
  Average inhibition score: ++ (“++” = zone < 1 cm)
[1]; S. haemolyticus 4073
  Mutants observed after 24 h (mark *): *
[1]; S. haemolyticus 7067_4_21, 5 μl at 1 mg/ml, n = 3
  Average inhibition score: ++ (“++” = zone < 1 cm)
[1]; S. haemolyticus 7067_4_21
  Mutants observed after 24 h (mark *): *
[1]; S. haemolyticus 7067_4_28, 5 μl at 1 mg/ml, n = 3
  Average inhibition score: +++ (“+++” = zone ≥ 1 cm)
[1]; S. haemolyticus 7067_4_28
  Mutants observed after 24 h (mark *): *
[1]; S. haemolyticus 7067_4_39, 5 μl at 1 mg/ml, n = 3
  Average inhibition score: +
[1]; S. haemolyticus 7067_4_48, 5 μl at 1 mg/ml, n = 3
  Average inhibition score: +
[1]; S. haemolyticus 7067_4_49, 5 μl at 1 mg/ml, n = 3
  Average inhibition score: ++ (“++” = zone < 1 cm)
[1]; S. haemolyticus 7067_4_49
  Mutants observed after 24 h (mark *): *
[1]; S. haemolyticus 7067_4_56, 5 μl at 1 mg/ml, n = 3
  Average inhibition score: ++ (“++” = zone < 1 cm)
[1]; S. haemolyticus 7067_4_56
  Mutants observed after 24 h (mark *): *
[1]; S. haemolyticus 7067_4_60, 5 μl at 1 mg/ml, n = 3
  Average inhibition score: +++ (“+++” = zone ≥ 1 cm)
[1]; S. haemolyticus 7067_4_60
  Mutants observed after 24 h (mark *): *
[1]; S. haemolyticus 7067_4_66, 5 μl at 1 mg/ml, n = 3
  Average inhibition score: ++ (“++” = zone < 1 cm)
[1]; S. haemolyticus 7067_4_66
  Mutants observed after 24 h (mark *): *
[1]; S. haemolyticus 7067_4_67, 5 μl at 1 mg/ml, n = 3
  Average inhibition score: ++ (“++” = zone < 1 cm)
[1]; S. haemolyticus 7067_4_67
  Mutants observed after 24 h (mark *): *
[1]; S. haemolyticus 7067_4_71, 5 μl at 1 mg/ml, n = 3
  Average inhibition score: +++ (“+++” = zone ≥ 1 cm)
[1]; S. haemolyticus 7067_4_71
  Mutants observed after 24 h (mark *): *
[1]; S. haemolyticus 7067_4_84, 5 μl at 1 mg/ml, n = 3
  Average inhibition score: ++ (“++” = zone < 1 cm)
[1]; S. haemolyticus 7067_4_84
  Mutants observed after 24 h (mark *): *
[1]; S. haemolyticus 7068_7_63, 5 μl at 1 mg/ml, n = 3
  Average inhibition score: ++ (“++” = zone < 1 cm)
[1]; S. haemolyticus 7068_7_63
  Mutants observed after 24 h (mark *): *
[1]; S. haemolyticus LMG 4133, 5 µl at 1 mg/ml, n=3
  Average inhibition score: ++ (“++” = zone < 1 cm)
[1]; S. haemolyticus SH01, 5 μl at 1 mg/ml, n = 3
  Average inhibition score: +++ (“+++” = zone ≥ 1 cm)
[1]; S. haemolyticus SH01
  Mutants observed after 24 h (mark *): *
[1]; S. haemolyticus SH04, 5 μl at 1 mg/ml, n = 3
  Average inhibition score: +++ (“+++” = zone ≥ 1 cm)
[1]; S. haemolyticus SH04
  Mutants observed after 24 h (mark *): *
[1]; S. haemolyticus SH09, 5 μl at 1 mg/ml, n = 3
  Average inhibition score: +
[1]; S. haemolyticus SH10, 5 μl at 1 mg/ml, n = 3
  Average inhibition score: +++ (“+++” = zone ≥ 1 cm)
[1]; S. haemolyticus SH10
  Mutants observed after 24 h (mark *): *
[1]; S. haemolyticus SH14, 5 μl at 1 mg/ml, n = 3
  Average inhibition score: ++ (“++” = zone < 1 cm)
[1]; S. haemolyticus SH14
  Mutants observed after 24 h (mark *): *
[1]; S. haemolyticus SH20, 5 μl at 1 mg/ml, n = 3
  Average inhibition score: ++ (“++” = zone < 1 cm)
[1]; S. haemolyticus SH20
  Mutants observed after 24 h (mark *): *
[1]; S. haemolyticus SH46, 5 μl at 1 mg/ml, n = 3
  Average inhibition score: ++ (“++” = zone < 1 cm)
[1]; S. haemolyticus SH46
  Mutants observed after 24 h (mark *): *
[1]; S. haemolyticus SH47, 5 μl at 1 mg/ml, n = 3
  Average inhibition score: +++ (“+++” = zone ≥ 1 cm)
[1]; S. haemolyticus SH47
  Mutants observed after 24 h (mark *): *
[1]; six S. haemolyticus strains 4068–4073, 0.04, 0.2 and 1.0 mg/ml, 5 µl spotted
  Inhibition zones at three concentrations: some inhibition was seen only at the highest concentration
L. monocytogenes
  Average inhibition score: +++ (“+++”= zone > 1 cm)
L. sakei; L. sakei 148
  Average inhibition score: -
L. sakei; L. sakei LMG 2380
  Average inhibition score: -
Carnobacterium divergens
  Average inhibition score: -
Bacillus cereus; B. cereus LMG 2711
  Average inhibition score: -
Bacillus cereus; B. cereus LMG 2731
  Average inhibition score: -
Bacillus cereus; Bacillus cereus LMG 2805
  Average inhibition score: -
C. piscicola
  Average inhibition score: -
